Consider two compounds from patent US8859599B2, “Androgen receptor modulating compounds, preparation and uses thereof” (priority 2009, dated 2014).

For series [1], the system named is LNCaP cells. Nature of the series: Sulforhodamine B (SRB) in vitro chemosensitivity assay on LNCaP cells. As to conditions: for GI50 / LC50: Homo sapiens, LNCaP, 144 h; for GI50: read-out: Growth inhibition (GI50), LNCaP cells, 144 h exposure; for LC50: read-out: cytocidal effects by 50% (LC50), LNCaP cells, 144 h exposure, n.r. = not reached; for cytocidal (cell killing) activity: LNCaP cells, 144 h exposure. Format: cell-based. The method, then:
(§1) Sulforhodamine B (SRB) assay was used according to the method by Skehan et al. (JNCI, 1990). Briefly, cells were collected by trypsinization, counted and plated at a density of 5,000 cells/well in 96-well flat-bottomed microtiter plates (100 μl of cell suspension/well). In the chemosensitivity assay, experiments were run in octuplicate, and each experiment was repeated three times. The optical density (OD) of cells was determined at a wavelength of 490 nm by a colorimetric plate reader.
(§2) Growth inhibition and cytocidal effect of drugs were calculated according to the formula reported by Monks et al. (JNCI, 1991): [(ODtreated−ODzero)/(ODcontrol−ODzero)]×100%, when ODtreated is > to ODzero. If ODtreated is above ODzero, treatment has induced a cytostatic effect, whereas if ODtreated is below ODzero, cell killing has occurred. The ODzero depicts the cell number at the moment of drug addition, the ODcontrol reflects the cell number in untreated wells and the ODtreated reflects the cell number in treated wells on the day of the assay. TUNEL Assay
The authors examined the antitumour activity of the compounds for which the synthesis is described above, in the hormone-sensitive prostate cancer cell line LNCaP. (R)-Bicalutamide and the novel compounds were tested at the increasing concentrations of […]. The highest dose used was chosen on the basis of the clinically achievable peak plasma concentration reported in the literature for bicalutamide (Cockshott I D. Clin Pharmacokinet. 2004; 43 (13) 855-78).
After 144-hr exposure time, the cytotoxic effect of the molecules was calculated according to the method of Monks et al. (Monks A, et al., J. Nat. Cancer Inst. 1991; 83: 757-66).

The subject of the next series is HepG2 cells. Nature of the series: Cytotoxic activity on hepatoblastoma cell line HepG2. Format: cell-based, human. As to conditions: up to highest concentration tested. The method, then:
(§3) Finally, compounds were also tested on HepG2 cells, originally isolated from a primary hepatoblastoma of a child, purchased from ATCC.
as §1, §2
(§4) The authors evaluated in vitro the potential hepato-toxicity of some of the novel compounds on HepG2 cell line, a human hepatoblastoma cell line that retains the specialized function of normal hepatocytes [Knowles B B, et al., Science 1980, 209:497-499; Aden D P, et al., Nature, 1979, 282:615-616].

A further series relates to LNCaP-AR cells. Nature of the series: TUNEL assay of apoptotic cells in LNCaP-AR. Format: cell-based, human. Conditions: 20.0 μM; for Apoptotic cells (%): LNCaP-AR, 144-h exposure, TUNEL.
Series [2] deals with normal stem cells derived from human peripheral blood stem cells. Nature of the series: Colony-forming cell assay (GM-CFU). Format: cell-based. Conditions: highest concentration tested, 14 days incubation. The method, then: The colony-forming cell assay was used as previously described [Motta M R et al., Exp Hematol 1997; 25:1261-1269]. In brief, for each molecule, 5×10^4 cells were plated in duplicate in a complete culture medium (MethoCult H4434, StemCell Technologies, Vancouver, Canada) containing different concentrations (0.2, 2, and 20 μmol/l) of the compound. After 14 days of incubation in a humidified atmosphere of 5% CO2 at the temperature of 37° C., granulocyte macrophage colony-forming unit (GM-CFU) aggregates of more than 50 cells were counted. Control cells were incubated under the same conditions but in drug-free medium.
The authors also evaluated the potential toxicity of some of the novel compounds in normal cells as the ability of the drugs to inhibit clonogenic growth of normal stem cells derived from human peripheral blood stem cells (FIG. 37). The exposure of hematopoietic precursor to the compounds, caused low ((S)-37) or negligible (, (R)-22, (R)-23, (R)-10) toxicity at the highest concentration tested.

In series [3] the test system is LNCaP cells. Put plainly: TUNEL assay of apoptotic cells in LNCaP. Format: cell-based, human. Conditions: 144-h exposure, 20.0 μM. The method, then: Cells were fixed in 1% paraformaldehyde in PBS on ice for 15 min, suspended in ice cold ethanol (70%) and stored overnight at −20° C. Cells were then washed twice in PBS and resuspended in PBS containing 0.1% Triton X-100 for 5 min at 4° C. Thereafter, samples were incubated in 50 μl of solution containing TdT and FITC-conjugated dUTP deoxynucleotides 1:1 (Roche Diagnostic GmbH, Mannheim, Germany) in a humidified atmosphere for 90 min at 37° C. in the dark, washed in PBS, counterstained with propidium iodide (2.5 μg/ml, MP Biomedicals, Verona, Italy) and RNAse (10 Kunits/ml, Sigma Aldrich, Milan, Italy) for 30 min at 4° C. in the dark and analyzed by flow cytometry.
After the end of drug exposures, medium was removed and cells were detached from the flasks by trypsin treatment, washed twice with PBS and stained according to the different methods specified below. Flow cytometric analysis was performed using a FACS Canto flow cytometer (Becton Dickinson, San Diego, Calif.). Data acquisition and analysis were performed using FACSDiva software (Becton Dickinson). Samples were run in triplicate and 10,000 events were collected for each replica. Data were the average of three experiments, with errors under 5%.
The cells, before TUNEL assay, were continuously exposed to the anti-androgen compounds for 144 hours at the concentration of 20.0 μM.

Another series has as its system PC-3. Put plainly: SRB cytotoxicity on PC-3 cells. Format: cell-based, human. As to conditions: PC-3 cells (no AR), 144 h exposure. The method, then: as §3, §1, §2
(§5) The authors tested the antitumour activity of the compounds also on PC-3 and DU145 cancer cell lines, representative of hormone-refractory prostate cancer due to AR receptor absence.

For a further series, the system named is DU145. Nature of the series: SRB cytotoxicity on DU145 cells. Format: cell-based, human. Conditions: DU145 cells (no AR), 144 h exposure. The method, then: as §3, §1, §2, §5
The nature of series [4]: Cytotoxic activity on hepatoblastoma cell line HepG2. Format: cell-based, human. Conditions: human, HepG2 cells. The protocol: as §3, §1, §2, §4

Consider `CS(=O)(=O)N[C@@](Cc1ccccc1)(CS(=O)(=O)c1ccc(F)cc1)C(=O)Nc1ccc(C#N)c(C(F)(F)F)c1` [(R)-10, (R)-2-benzyl-N-(4-cyano-3-(trifluoromethyl)phenyl)-3-(4-fluorophenylsulfonyl)-2-(methylsulfonamido)propanamide], for which, in the series with LNCaP cells [1], the GI50 is 7.4 µM, the LC50 turned out to be 17.7 µM and the “cytocidal (cell killing) activity” value was “cytocidal activity”. The potential hepato-toxicity result with HepG2 cells was “negligible toxicity”. The “apoptosis induction in the LNCaP derivative cell line versus LNCaP” value in the series on LNCaP-AR cells (144 h) is on record as “more active”. Further, the “Apoptotic cells (%)” value in the series with LNCaP-AR cells was 42.7%. Further, in series [2], the “toxicity: inhibition of clonogenic growth of hematopoietic precursors” value was “negligible”. Besides, the “Apoptotic cells (%)” value in the series on LNCaP cells [3] was determined as 35.5%. Moreover, the “cytotoxic properties compared to effects on LNCaP and LNCaP-AR cells” value (“cytotoxic properties compared to effects” for short) in the series with PC-3 is “significant reduction in their cytotoxic proprieties”. Moreover, the “cytotoxic properties compared to effects” value in the series on DU145 was “significant reduction in their cytotoxic proprieties”.
As for `N#Cc1ccc(N2C(=O)[C@](Cc3ccc(F)cc3)(c3ccccc3)NC2=S)cc1C(F)(F)F` [(S)-37], in the series on LNCaP cells [1], the GI50 turned out to be 5.8 µM, the LC50 is 16.8 µM and the “cytocidal (cell killing) activity” value is “cytocidal activity”. In the series on HepG2 cells, the potential hepato-toxicity entry is “significant toxicity”. In series [4], this compound showed a GI50 of 7.4 µM and an LC50 (concentration killing 50% of cells) of 17.7 µM. For the same compound, the “Apoptotic cells (%)” value in the series on LNCaP-AR cells turned out to be 89.5%. Further, the “toxicity: inhibition of clonogenic growth of hematopoietic precursors” value in series [2] is “low”. For the same compound, the “Apoptotic cells (%)” value with LNCaP cells [3] stood at 93.4%. Moreover, the “cytotoxic properties compared to effects” value in the series with PC-3 is “significant reduction in their cytotoxic proprieties”. Also, in the series with DU145, the “cytotoxic properties compared to effects” value is recorded as “significant reduction in their cytotoxic proprieties”.
